Literature values in patent publication US12084679B2, “Methods of in vitro differentiation of midbrain dopamine (mDA) neurons” (MEMORIAL SLOAN-KETTERING CANCER CENTER, priority 2015, dated 2024).

Legend:
[1] = system: rodent GSK3β homologs
[2] = biological target: ALK6 (Homo sapiens, UniProt O00238)
[3] = biological target: T1, ALK2 (Homo sapiens, UniProt Q04771)
T1 sequence (Q04771 21-509): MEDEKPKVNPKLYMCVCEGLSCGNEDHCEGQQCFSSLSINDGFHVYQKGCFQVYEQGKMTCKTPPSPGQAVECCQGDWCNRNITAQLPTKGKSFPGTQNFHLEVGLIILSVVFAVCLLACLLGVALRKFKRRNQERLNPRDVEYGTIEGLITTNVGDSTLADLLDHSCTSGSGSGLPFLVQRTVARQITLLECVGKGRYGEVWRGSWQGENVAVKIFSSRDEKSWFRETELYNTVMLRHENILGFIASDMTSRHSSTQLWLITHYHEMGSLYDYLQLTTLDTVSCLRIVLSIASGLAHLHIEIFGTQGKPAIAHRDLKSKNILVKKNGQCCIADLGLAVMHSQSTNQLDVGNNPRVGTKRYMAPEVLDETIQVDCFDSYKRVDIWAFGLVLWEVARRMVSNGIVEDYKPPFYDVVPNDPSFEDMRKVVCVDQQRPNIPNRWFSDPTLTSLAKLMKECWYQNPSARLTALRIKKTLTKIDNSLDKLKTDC

[4] = biological target: ALK3 (Homo sapiens, UniProt P36894)
Chain of ALK3 (P36894 24-532, species assumed): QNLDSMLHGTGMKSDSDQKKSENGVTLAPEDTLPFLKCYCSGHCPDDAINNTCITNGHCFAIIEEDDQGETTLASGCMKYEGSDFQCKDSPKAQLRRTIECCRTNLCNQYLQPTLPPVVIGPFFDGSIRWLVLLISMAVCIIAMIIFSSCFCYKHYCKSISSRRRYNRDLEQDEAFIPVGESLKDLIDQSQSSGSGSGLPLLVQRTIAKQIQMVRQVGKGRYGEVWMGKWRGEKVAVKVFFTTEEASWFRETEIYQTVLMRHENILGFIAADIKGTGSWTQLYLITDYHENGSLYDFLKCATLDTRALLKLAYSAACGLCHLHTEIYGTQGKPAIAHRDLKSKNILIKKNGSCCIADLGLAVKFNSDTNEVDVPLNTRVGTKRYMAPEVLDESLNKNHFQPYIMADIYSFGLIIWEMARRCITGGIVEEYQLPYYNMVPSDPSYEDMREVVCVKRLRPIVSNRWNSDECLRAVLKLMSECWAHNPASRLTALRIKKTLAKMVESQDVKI

Chain of ALK6 (O00238 14-502): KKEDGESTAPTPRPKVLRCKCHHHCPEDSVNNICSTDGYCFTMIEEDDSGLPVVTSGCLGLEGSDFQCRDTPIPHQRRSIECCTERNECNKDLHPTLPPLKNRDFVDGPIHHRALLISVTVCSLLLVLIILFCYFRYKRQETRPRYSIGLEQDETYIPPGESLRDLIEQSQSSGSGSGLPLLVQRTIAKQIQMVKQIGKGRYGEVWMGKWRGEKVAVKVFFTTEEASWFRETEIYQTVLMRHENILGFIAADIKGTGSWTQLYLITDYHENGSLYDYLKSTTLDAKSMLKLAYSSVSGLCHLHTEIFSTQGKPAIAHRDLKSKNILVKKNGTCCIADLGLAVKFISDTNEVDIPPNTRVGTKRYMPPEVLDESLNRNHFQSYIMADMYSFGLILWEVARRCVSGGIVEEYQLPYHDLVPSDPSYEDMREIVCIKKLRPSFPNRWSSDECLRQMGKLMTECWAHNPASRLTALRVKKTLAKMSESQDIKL

| Structure (SMILES) | IC50 values against rodent GSK3β homologs [1] | inhibitor of ALK6 [2] | inhibitor of ALK2 [3] | inhibitor of ALK3 [4] |
| --- | --- | --- | --- | --- |
| Cc1c[nH]c(-c2cnc(NCCNc3ccc(C#N)cn3)nc2-c2ccc(Cl)cc2Cl)n1 [CHIR99021, 6-(2-(4-(2,4-dichlorophenyl)-5-(4-methyl-H-imidazol-2-yl)pyrimidin-2-ylamino)ethylamino)nicotinonitrile] | nanomolar | – | – | – |
| c1ccc2c(-c3cnn4cc(-c5ccc(N6CCNCC6)cc5)cnc34)ccnc2c1 [LDN193189, 4-(6-(4-(piperazin-1-yl)phenyl)pyrazolo[1,5-a]pyrimidin-3-yl)quinoline] | – | highly potent | highly potent | highly potent |
